Results as given in patent publication US10105343B2, “Cannabis based compositions and methods of treating hypertension” (KUBBY PATENT AND LICENSES, LIMITED LIABILITY COMPANY, priority 2010, dated 2018).

Tested on: hypertension
Experiment: Inventor's own case: control of hypertension in adrenal cancer (anecdotal patient report)
Type: in vivo, human
Conditions: single patient (the inventor)
From the text: In 1999, this inventor's doctors told them that after completing extensive medical tests at the University of Southern California's School of Medicine their prognosis was poor. According to Dr. Vincent DeQuattro, a USC professor and world authority on adrenal cancer, their blood contained deadly levels of adrenaline, more than enough to kill anyone else.
Nearly everyone else who has ever had the malignant form of the inventor's disease has died within a few years. The inventor credits their survival, now 35 years since their diagnosis, to medical marijuana, something DeQuattro considered a “medical miracle.” Dr. DeQuattro has written that the inventor could suffer a heart attack or stroke if deprived of marijuana and that no other form of therapy is available.
Despite the seriousness and dramatic dangers of their disease, a person was arrested and jailed for using the only medicine that worked for them. During their first few days of incarceration, they experienced excruciating pain, a vicious high blood-pressure crisis, passed blood in their urine and over a period of 60 days, and lost 33 pounds.
That's when […] started to experiment with lozenges to see if […] could create a natural cannabis based lozenge that would control hypertension, without undesirable side effects.
This led the Inventor to the development that is taught in this invention.

With `CCCCCc1cc(O)c2c(c1)OC(C)(C)[C@@H]1CCC(C)=C[C@@H]21` [Marinol, tetrahydrocannabinol] the undesirable side effects was “constant nausea”, the controlling hypertension (adrenal cancer with deadly adrenaline levels) was “extremely effective” and the “substitute for whole cannabis in treating the inventor's otherwise fatal disease” value (during incarceration) was “acceptable, if not ideal, substitute”.
